“Also recorded” adds a separate entry of the source. Bounds are passed on as bounds.

We go through one sequence from publication PMC2751816, “Functional, Non-Clonal IgM^a-Restricted B Cell Receptor Interactions with the HIV-1 Envelope gp41 Membrane Proximal External Region” (PLoS ONE, 2009).

Assay [1] deals with naïve splenic BALB/c B cells. Description: Flow cytometry: APC-labeled tetramer staining of BALB/c splenic B cells. In kind it is cell-based, mouse (BALB/c). The protocol:
N-biotinylated, linker/spacer-containing peptides used to make tetramers are detailed in Table S4 and Fig. 7A. Peptides were synthesized and purified using reverse-phase HPLC (Primm Biotechnology). To produce tetramerized forms of each peptides, 200 µM peptide and 6 µM APC-labeled streptavadin (SA) were combined at equal volumes, and mixtures were incubated at 4°C for 4 h. Unbound peptide was removed from peptide-APC complexes by centrifugal filtration using an Amicon Centriprep YM30 column (Millipore Corporation). Purified tetramer preparations were determined using the Micro BSA protein assay kit (Pierce Biotechnology).
(§1) FACS staining of single cell suspensions (≥2×10^6) was conducted using pre-mixed combinations of fluorochrome-labeled Abs and APC-conjugated B cell tetramers at empirically-determined optimal concentrations. All Abs were from BD unless otherwise stated. Primary antibodies used were: PerCP anti-B220, FITC anti-IgD, FITC, PE or PE-Cy7 anti-IgM, PE anti-CD5, FITC anti-CD11b, PE-Cy7 anti-CD19, FITC anti-CD21, PE-Cy7 anti-CD23 (eBiosciences), and PE-Cy7 anti-CD93 (eBiosciences). Other reagents included biotinylated Abs against dump channel markers: Thy1 (Abcam), F4/80 (Abcam), CD11c, Gr-1, TER-119, and NK-1.1, secondary staining SA-Texas Red conjugate; v-amine live/dead violet dye (Molecular Probes), and Fc block (anti-CD16/32).
(§2) Staining was conducted at 4°C in several sequential steps in FACS staining buffer (1X PBS with 2% FCS, 0.1% NaN3), washing twice between steps. Cells were first incubated with v-amine live/dead dye for 15 min, then stained with APC-labeled tetramers for 30 min (and in some experiments, cold tetramer was incubated at 10 fold molar excess for 1 h, prior to staining with APC-labeled tetramers). Cells were then stained with Fc block, followed by incubation with combinations of primary Abs, and secondary staining with SA-Texas Red, each for 30 min. Data (≥2.5×10^5 events/sample) were acquired using an LSRII flow cytometer and Cell Quest software (BD Immunocytometry systems). FACS Analysis was performed using FlowJo software (Tree Star). For analysis, cells were gated in the following order: single cells were gated based on fsc height vs. fsc area+ssc height vs. ssc profiles, lymphocytes were gated on fsc and ssc profile, residual dead cells were excluded by negative gating with v-amine live/dead dye, and irrelevant non-B cells were excluded by negative gating with dump markers.
For orientation: In flow cytometry, cells or beads pass a laser one at a time.

Assay [2] has as its system BALB/c B cells (gp41 MPER tetramer binding). The experiment in a line: Cold inhibition of APC-labeled gp41 MPER tetramer binding by unlabeled tetramers. The format is cell-based, mouse (BALB/c). As for the experimental part:
as §1, §2

Assay [3] relates to protein tyrosine phosphorylation in BALB/c splenic B cells. Description: Phosphotyrosine immunoblot of stimulated splenic B cells. The format is cell-based, mouse (BALB/c). Particulars: saturating tetramer 20 µg/10^6 cells, Fig. 8A. The protocol: To determine if gp41 MPER interactions with IgM^a could elicit the activating signals required for biological responses, we assessed BCR-proximal signaling events in BALB/c splenic B cells ligated with gp41 MPER tetramers. First, we determined the induction of protein tyrosine phosphorylation in cells incubated with saturating concentrations (20 µg/10^6 cells; see Fig. 1b) of gp41 MPER tetramer (Fig. 8A).
5×10^6 splenic BALB/c B cells were isolated by negative depletion of CD43-expressing cells with anti-mouse CD43 MACS beads (Miltenyi Biotech) to >95% purity, as assessed by flow cytometry. Purified B cells were equilibrated to 37°C in a humidified incubator and stimulated with gp41 MPER tetramers or F(ab)'2 anti-IgM (Jackson ImmunoResearch) in 5% FBS-containing DMEM media for various times. Whole cell extracts were made by lysing cell pellets in 1% NP-40 lysis buffer supplemented with PhosSTOP and complete, mini EDTA-free protease inhibitor tablets (Roche) and insoluble cellular debris was removed by centrifugation. Extracts were fractionated by reducing SDS PAGE on Novex Bis-Tris Mini gels (Invitrogen) and transferred to Invitrolon PVDF membranes (Invitrogen) using the Xcell II blot module. Primary Abs used were anti-phosphotyrosine clone 4G10 (Upstate) and anti-GAPDH (Millipore). Secondary Abs used were goat-anti-mouse IgG1 or IgG2a, both coupled to HRP (Jackson ImmunoResearch). […]
Background: Immunoblotting shows a protein as a band on a membrane.

Assay [4] concerns phosphorylated Erk in BALB/c splenic B cells. The experiment in a line: Intracellular FACS of phosphorylated Erk1/2. In kind it is cell-based, mouse (BALB/c). Particulars: naïve BALB/c splenocytes; gated on ligated B cells; Fig. 8B. As for the experimental part: Splenocyte suspensions were incubated at 37°C for various times with either APC-labeled F(ab)'2 anti-IgM (Jackson ImmunoResearch) or APC-labeled gp41 MPER tetramers. Stimulations were stopped by the addition of PhosFlow Lyse/Fix buffer (BD) and incubation for 10 min at 37°C. Cells were stained with B220-FITC prior to permeabilization with PhosFlow Perm Buffer III (BD). Permeabilized cells were stained with a PE-labeled Ab to Erk1 and Erk2 (BD), according to the manufacturer's instructions. Cells were fixed with 2% paraformaldehyde, and all data were collected and analyzed as done for standard flow cytometry.

In the next assay the test system is MZ and B1 B cells. To be noted: gp41 MPER-immunized BALB/c mice; ref L. Verkoczy and B. Haynes, unpublished results; cited from earlier work. From the text: Classical B-cell sAgs, like the S. aureus protein A subunit (SpA), can bind to and activate large populations of B cells, may cause selective deletion of MZ and B1 B cell subsets, and bind to B cells based on VH family usage, [52]. Similarly, sAg interactions of HIV-1 gp120 with human B cells have been described (reviewed in [37] and [53]–[56]), resulting in a VH3-skewed repertoire in HIV-1 infected individuals (reviewed in [57] and [58]–[60]). […] In this context, one obvious question arising from our studies is what are the physiological consequences of weak and/or incomplete signaling by gp41 MPER (Fig. 8). One possibility is that incomplete activation of B cells by low affinity MPER binding could suppress the T-independent component of MPER Ab respon ...

“QQEKNEQELLELDKWASLWN [gp41 MPER tetramer, (residues 659–678 of the HIV-1 envelope)]”: the “MFI binding pattern (in words)” value in assay [1] (BALB/c B cell subsets, Fig. 1A, 2A, Table S1) is “the majority of MPER-reactive B cells within BALB/c subsets shifted as “low avidity” shoulders, with an additional, small fraction binding as a “higher-avidity” MFI tail”. Also, in assay [1] (BALB/c splenic and peritoneal subsets, MFI and frequency, Fig. 2, Tables S1, S2), the “gp41 MPER reactivity among B cell subsets (in words)” value is “gp41 MPER reactivity was strongest in marginal zone (MZ) and peritoneal B1 B cell subsets of BALB/c mice; also recorded: exhibited lower levels of gp41 MPER binding”. For the same sequence, the “fraction of all B cells labeled at saturating tetramer” value in assay [1] (BALB/c splenocytes, 10 µg/10^6 splenocytes, Fig. 1B) is reported as approximately 25%. In addition, in assay [1] (BALB/c splenocytes, Fig. 1B), the “tetramer amount giving saturating binding” value was found to be 10 µg/10^6 splenocytes. The “tetramer amount with highest gp41 MPER/scrambled gp41 MPER binding ratio” value in assay [1] (BALB/c splenocytes, sub-saturating, Fig. 1B) came to 100 ng/10^6 splenocytes. Further, in assay [1] (high-frequency binding, 100 ng tetramer/10^6 cells), the “frequency of binding to BALB/c B cells” value was not below 5%. Besides, in assay [1] (serial dilutions, MFI and fraction of labeled B cells, Fig. 1B), the “gp41 MPER binding over wide tetramer concentration range (in words)” value was “Elevated gp41 MPER binding to BALB/c cells, relative to C57BL/6 B cells, was observed at all concentrations of tetramers carrying MPER peptide; also recorded: substantially elevated relative to the scrambled peptide controls”. In addition, in assay [1] (total splenic B cells (CD19^+), naïve BALB/c, APC tetramer 100 ng/10^6 splenocytes, above background without tetramer, Fig. 1A representative histogram), the “percentage of tetramer-reactive B cells” value is on record as approximately 7%. Further, the “inhibition of APC-labeled gp41 MPER tetramer binding” value in assay [2] (pre-incubation with unlabeled competitor at 10-fold molar excess, 100 ng/10^6 splenocytes) was more than 90%. Also, in assay [2] (unlabeled competitor tetramer pre-incubated, Fig. 4A,B, average of three experiments (4B)), the “inhibition of APC-labeled gp41 MPER tetramer binding (in words)” value is “Dose-dependent inhibition of APC-labeled gp41 MPER peptide binding was observed”. Further, the “protein tyrosine phosphorylation relative to anti-IgM ligation” value in assay [3] (lower than anti-IgM ligation of equal numbers of B cells) is 2- to 3 fold. In assay [3] (listed as gp41 MPER tetramers), the “protein tyrosine phosphorylation (in words)” value is “induced rapid and reproducible patterns of protein phosphorylation; also recorded: only selected proteins were phosphorylated, including Syk, PI3K p110δ, PLC-γ2, and one or more of the Src kinase family members Lyn, Fyn, or Blk”. The “Erk phosphorylation (in words)” value in assay [4] is given as “detectable, but dampened induction of phosphorylated Erk; also recorded: peak gp41 MPER-induced Erk phosphorylation persisted at 30 min; also recorded: the entire population of gp41 MPER-gated B cells showed modest Erk activation”. Besides, in the assay with MZ and B1 B cells, the “B cell subset deletion after immunization (in words)” value was “partial deletion of MZ and B1 B cells in gp41 MPER-immunized BALB/c mice; also recorded: reduced MZ B cell populations in gp41 MPER-immunized BALB/c mice”.
